# Assay results reported in patent US20200131144A1, “AMINE OR (THIO)AMIDE CONTAINING LXR MODULATORS” (Phenex-FXR GmbH, priority 2017, published 2020).
# pEC50: −log10 of the molar value.
# Tests used:
# [1] = Pharmacokinetics in mice after single oral dosing, blood and liver exposure by LC-MS; format: in vivo, mice (C57/bl6/J); details: for Kp at 4 h / Kp at 12 h: male, C57/bl6/J, mouse, liver/blood, read-out: liver/blood ratio; for Kp at 4 h / blood/plasma exposure / liver exposure / Kp at 12 h: single oral dose 20 mg/kg
# Method: The pharmacokinetics of the compounds was assessed in mice after single dosing and oral administrations. Blood and liver exposure was measured via LC-MS.
# The study design was as follows:
# Animals: C57/bl6/J (Janvier) males Diet: standard rodent chow Dose: 20 mg/kg Animal handling: animals were withdrawn from food at least 12 h before administration Design: single dose oral administration, n=3 animals per group Sacrifice: at stated time point (4, 12 or 24 h) after administration Bioanalytics: LC-MS of liver and blood samples
# [2] = molecular target: T1, LXRβ full length (FL) (Homo sapiens, UniProt P55055, INS174Q); assay: LXR Gal4 reporter transient transfection assay, mammalian two-hybrid, FL-M2H Gal4β; format: cell-based; details: HEK293 cells; inverse agonist unless *
# T1 construct: the full length (FL) proteins of LXRα (amino acids 1-447); NP005684; NP009052; expressed in transfected cells; host or cells: HEK293
# T1 sequence (P55055 with tags, fused parts or gaps INS174Q): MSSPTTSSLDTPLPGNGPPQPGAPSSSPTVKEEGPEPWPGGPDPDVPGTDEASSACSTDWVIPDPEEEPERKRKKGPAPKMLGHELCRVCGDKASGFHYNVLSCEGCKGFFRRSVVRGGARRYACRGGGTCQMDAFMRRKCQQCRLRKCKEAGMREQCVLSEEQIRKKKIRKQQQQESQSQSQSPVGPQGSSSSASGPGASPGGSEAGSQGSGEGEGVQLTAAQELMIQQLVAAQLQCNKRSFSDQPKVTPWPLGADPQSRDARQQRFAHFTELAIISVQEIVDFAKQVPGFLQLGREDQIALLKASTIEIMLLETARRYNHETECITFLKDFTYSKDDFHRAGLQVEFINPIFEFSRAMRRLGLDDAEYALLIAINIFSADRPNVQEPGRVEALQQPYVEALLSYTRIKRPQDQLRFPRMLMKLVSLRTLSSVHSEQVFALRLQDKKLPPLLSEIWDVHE
# Outline: (§1)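 Mammalian two-hybrid read-out: interaction of LXRα or LXRβ (full length or ligand-binding domain, NFkB activation-domain fusions) with GAL4-fused SRC1 or NCoR domains drives GAL4-responsive firefly luciferase in HEK293 cells, normalised by Renilla cotransfection. Compounds given 4 h after transfection, ≤0.2% vehicle, cells lysed after 16 h.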
# [3] = molecular target: T2, LXRα full length (FL) (Homo sapiens, UniProt Q13133); assay: LXR Gal4 reporter transient transfection assay, mammalian two-hybrid, FL-M2H Gal4α; format: cell-based; details: HEK293 cells; inverse agonist unless *
# T2 construct: the full length (FL) proteins of LXRα (amino acids 1-447); NP005684; expressed in transfected cells; host or cells: HEK293
# T2 sequence (Q13133 1-447): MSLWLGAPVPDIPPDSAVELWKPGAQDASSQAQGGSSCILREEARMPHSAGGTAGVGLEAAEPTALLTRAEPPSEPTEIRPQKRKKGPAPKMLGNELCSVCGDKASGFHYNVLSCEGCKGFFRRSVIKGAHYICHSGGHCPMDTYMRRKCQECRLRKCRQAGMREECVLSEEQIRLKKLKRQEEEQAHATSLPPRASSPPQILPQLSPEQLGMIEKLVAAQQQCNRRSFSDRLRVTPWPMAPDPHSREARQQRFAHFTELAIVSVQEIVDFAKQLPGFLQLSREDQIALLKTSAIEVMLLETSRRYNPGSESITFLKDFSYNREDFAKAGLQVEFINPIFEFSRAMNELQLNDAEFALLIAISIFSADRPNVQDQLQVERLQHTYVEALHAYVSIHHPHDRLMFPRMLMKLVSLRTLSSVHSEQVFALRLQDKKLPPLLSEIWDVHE
# Outline: as §1
# [4] = molecular target: T3, GST-LXRβ ligand-binding domain (Homo sapiens, UniProt P55055, INS174Q); assay: TR-FRETβ activity assay (NCoA3 coactivator peptide recruitment); format: biochemical; details: 1 μM 24(S)-25-epoxycholesterol as prestimulating agonist; inverse agonist unless *
# T3 construct: amino acids 156-461; NP009052; made in house; host or cells: E. coli
# T3 sequence (P55055 with tags, fused parts or gaps INS174Q limits assumed): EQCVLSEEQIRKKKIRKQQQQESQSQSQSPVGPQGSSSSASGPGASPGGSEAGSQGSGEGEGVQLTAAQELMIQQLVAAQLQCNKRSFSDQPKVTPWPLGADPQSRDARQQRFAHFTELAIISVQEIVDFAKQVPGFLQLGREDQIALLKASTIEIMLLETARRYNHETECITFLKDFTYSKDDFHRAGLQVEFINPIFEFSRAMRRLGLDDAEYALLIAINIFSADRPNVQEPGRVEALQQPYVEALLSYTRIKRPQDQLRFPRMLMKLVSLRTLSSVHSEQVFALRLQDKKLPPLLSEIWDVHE
# Outline: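 Coactivator recruitment read as TR-FRET (ex 340, em 615 and 665 nm) after 1 h equilibration at 4° C, in triplicate. Mix held 76 nM GST-tagged LXRβ LBD (aa 156-461, E. coli), 400 nM biotin-NCoA3 peptide, Tb-cryptate anti-GST, streptavidin-XL665, 240 mM KCl buffer.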
SMILES,pEC50 [2],pEC50 [3],pEC50 [4],other results
"COC(=O)CS(=O)(=O)c1cccc(-c2ccc(CN(Cc3ccc(C(F)(F)F)o3)C(C)c3cccc4ccccc34)cc2)c1 (stereo not shown) [Example 6, Methyl 2-((4′-(((1-(naphthalen-1-yl)ethyl)((5-(trifluoromethyl)furan-2-yl)methyl)amino)methyl)-[1,1′-biphenyl]-3-yl)sulfonyl)acetate]",–,–,–,Kp at 4 h ([1]; time point 4 h): 45; blood/plasma exposure ([1]; time point 4 h): 0.20 µM; liver exposure ([1]; time point 4 h): 9.08 µM
Cc1ccc2c(F)cccc2c1C(=O)N(Cc1ccc(-c2cccc(C(C)(C)C(=O)O)c2)cc1)Cc1ccc(C(F)(F)F)o1 [27/12],> 7.00,> 7.00,> 7.00,Kp at 12 h ([1]; time point 12 h): 11; blood/plasma exposure ([1]; time point 12 h): 3.99 µM; liver exposure ([1]; time point 12 h): 43.7 µM
Cc1ccc2ccccc2c1CN(Cc1ccc(-c2cccc(S(=O)(=O)CC(=O)O)c2)cc1)Cc1ccc(C(F)(F)F)o1 [Example 7/1],> 7.00,6.00 to 7.00,5.00 to 6.00,Kp at 4 h ([1]; time point 4 h): 86; blood/plasma exposure ([1]; time point 4 h): 0.21 µM; liver exposure ([1]; time point 4 h): 18 µM
Cc1ccc2ccccc2c1CN(Cc1ccc(C(F)(F)F)o1)Cc1ccc(-c2cncc(S(=O)(=O)CC(=O)O)c2)cc1Cl [26/8],6.00 to 7.00,6.00 to 7.00,5.00 to 6.00,Kp at 4 h ([1]; time point 4 h): 178; blood/plasma exposure ([1]; time point 4 h): 0.01 µM; liver exposure ([1]; time point 4 h): 1.41 µM
Cc1ccc2ccccc2c1C(=O)N(Cc1ccc(-c2cccc(C(C)(C)C(=O)NO)c2)cc1)Cc1ccc(C(F)(F)F)o1 [5/3],> 7.00,> 7.00,> 7.00,Kp at 4 h ([1]; time point 4 h): 7.6; blood/plasma exposure ([1]; time point 4 h): 0.08 µM; liver exposure ([1]; time point 4 h): 0.61 µM
Cc1cc(C)c(CN(Cc2ccc(-c3cccc(C(C)(C)C(=O)O)c3)cc2)Cc2ccc(C(F)(F)F)o2)c(C)c1 [Example 10],6.00 to 7.00,6.00 to 7.00,> 7.00,Kp at 12 h ([1]; time point 12 h): 2.7; blood/plasma exposure ([1]; time point 12 h): 0.57 µM; liver exposure ([1]; time point 12 h): 1.5 µM
Cc1sc2ccccc2c1CN(Cc1ccc(-c2cccc(S(=O)(=O)CC(=O)O)c2)cc1)Cc1ccc(C(F)(F)F)o1 [7/6],6.00 to 7.00,6.00 to 7.00,5.00 to 6.00,–
Cc1nc2ccccc2c(C(=O)N(Cc2ccc(C(F)(F)F)o2)Cc2ncc(-c3cccc(C(C)C(=O)O)c3)cc2Cl)c1C (stereo not shown) [27/90],> 7.00,> 7.00,6.00 to 7.00,–
Cc1cc(C(=O)N(Cc2ccc(C(F)(F)F)o2)Cc2ccc(-c3cccc(C(C)(C)C(=O)O)c3)cc2Cl)c2ncccc2n1 [27/123],> 7.00,> 7.00,6.00 to 7.00,–
CONC(=O)CS(=O)(=O)c1cccc(-c2ccc(CN(Cc3ccc(C(F)(F)F)o3)Cc3c(C)cc(C)cc3C)cc2)c1 [Example 5/1],6.00 to 7.00,6.00 to 7.00,6.00 to 7.00,–
Cc1ccc2ccccc2c1C(=O)N(Cc1ccc(-c2cccc([C@H](C)C(=O)O)c2)cc1)Cc1cccc(C#N)c1 [27/84],> 7.00,> 7.00,6.00 to 7.00,–
Cc1nc2cnccc2c(C(=O)N(Cc2ccc(-c3cccc(C(C)(C)C(=O)O)c3)cc2)Cc2ccc(C(F)(F)F)o2)c1C [27/135],> 7.00,> 7.00,6.00 to 7.00,–
COCc1c(C)cc(C)c(C(=O)N(Cc2ccc(-c3cccc(C(C)(C)C(=O)O)c3)cc2)Cc2ccc(C(F)(F)F)o2)c1C [27/50],> 7.00,> 7.00,6.00 to 7.00,–
Cc1nc2cccnc2c(C(=O)N(Cc2ccc(C(F)(F)F)o2)Cc2ccc(-c3cccc(C(C)(C)C(=O)O)c3)cc2F)c1C [27/114],> 7.00,> 7.00,6.00 to 7.00,–
Cc1cc(C)c(CN(Cc2ccc(-c3cccc(S(=O)(=O)CC(=O)O)c3)cc2)Cc2ccc(C(=O)N(C)C)o2)c(C)c1 [7/13],5.00 to 6.00,5.00 to 6.00,5.00 to 6.00,–
CC(C)(C(=O)O)c1cccc(-c2ccc(CN(Cc3ccc(C(F)(F)F)o3)C(=O)c3cccc4ncncc34)cc2)c1 [27/13],> 7.00,6.00 to 7.00,5.00 to 6.00,–
Cc1ccc2ccccc2c1CN(Cc1ccc(-c2cncc(S(=O)(=O)CC(=O)O)c2)cc1)Cc1ccc(C(F)(F)F)o1 [26/7],6.00 to 7.00,5.00 to 6.00,< 5.00,–
"Cc1ccc2ccccc2c1C(=O)N(Cc1ccc(-c2cccc(S(=O)(=O)Cc3nnn[nH]3)c2)cc1)Cc1ccc(C(F)(F)F)o1 [Example 30, N-((3′-(((1H-Tetrazol-5-yl)methyl)sulfonyl)-1,1′-biphenyl-4-yl)methyl)-2-methyl-N-((5-(trifluoromethyl)furan-2-yl)methyl)-1-naphthamide]",6.00 to 7.00,6.00 to 7.00,6.00 to 7.00,–
Cc1cc(C)c(CN(Cc2ccc(-c3cccc(C(C)(C)C(=O)O)c3)cc2)Cc2ccc(C(F)(F)F)o2)c2c1CCC2 [27/33],> 7.00,> 7.00,6.00 to 7.00,–
COc1cnc2cccnc2c1C(=O)N(Cc1ccc(C(F)(F)F)o1)Cc1ccc(-c2cccc(C(C)(C)C(=O)O)c2)cc1Cl [27/124],> 7.00,> 7.00,> 7.00,–
Cc1cc(Br)cc(C)c1C(=O)N(Cc1ccc(-c2cccc(C(C)(C)C(=O)O)c2)cc1)Cc1ccc(C(F)(F)F)o1 [27/48],> 7.00,> 7.00,6.00 to 7.00,–
Cc1nc2ccccn2c1C(=O)N(Cc1ccc(-c2cccc(C(C)(C)C(=O)O)c2)cc1)Cc1ccc(C(F)(F)F)o1 [27/118],6.00 to 7.00,6.00 to 7.00,6.00 to 7.00,–
Cc1ccc2ccc(C#N)cc2c1CN(Cc1ccc(-c2cccc(C(C)(C)C(=O)O)c2)cc1)Cc1ccc(C(F)(F)F)o1 [27/27],> 7.00,> 7.00,6.00 to 7.00,–
Cc1cc(C)c(CN(Cc2ccc(-c3cccc(S(=O)(=O)CC(=O)O)c3)cc2)Cc2cccc(C(F)(F)F)c2)c(C)c1 [7/14],6.00 to 7.00,5.00 to 6.00,5.00 to 6.00,–
Cc1cc(C)c(CN(Cc2ccc(-c3cncc(S(=O)(=O)CC(=O)O)c3)cc2)Cc2ccc(C(F)(F)F)o2)c(C)c1 [12/2],–,–,–,Kp at 12 h ([1]; time point 12 h): 2.4; blood/plasma exposure ([1]; time point 12 h): 0.34 µM; liver exposure ([1]; time point 12 h): 0.83 µM
Cc1ccc2ccc(C(N)=O)cc2c1CN(Cc1ccc(-c2cccc(C(C)(C)C(=O)O)c2)cc1)Cc1ccc(C(F)(F)F)o1 [27/25],> 7.00,6.00 to 7.00,5.00 to 6.00,–
Cc1ccc2ccccc2c1C(=O)N(Cc1ccc(-c2cccc(C3(C(=O)O)CC3)c2)cc1)Cc1ccc(C(F)(F)F)o1 [27/75],> 7.00,> 7.00,6.00 to 7.00,–
"CCOC(=O)c1ccc(CN(Cc2ccc(-c3cccc(S(C)(=O)=O)c3)cc2)S(=O)(=O)c2c(C)cc(C)cc2C)o1 [SR9238, reference compound]",–,–,–,"oral bioavailability ([1]; single dose oral administration, 20 mg/kg): not orally bioavailable and hepatoselective"
